# Source: ChEMBL document CHEMBL1770082, “Probing the isoprenylcysteine carboxyl methyltransferase (Icmt) binding pocket: sulfonamide modified farnesyl cysteine (SMFC) analogs as Icmt inhibitors” (Bioorg Med Chem Lett, 2011)
# Biological target: T1, Protein-S-isoprenylcysteine O-methyltransferase (Homo sapiens, UniProt O60725)
# Assay: Inhibition of human ICMT incubated with N-Acetyl-S-farnesyl-L-cysteine substrate for 5 mins followed by addition of [14C]-SAM measured after 30 mins by liquid scintillation counting
# Settings: not given
# T1 sequence (O60725 whole entry): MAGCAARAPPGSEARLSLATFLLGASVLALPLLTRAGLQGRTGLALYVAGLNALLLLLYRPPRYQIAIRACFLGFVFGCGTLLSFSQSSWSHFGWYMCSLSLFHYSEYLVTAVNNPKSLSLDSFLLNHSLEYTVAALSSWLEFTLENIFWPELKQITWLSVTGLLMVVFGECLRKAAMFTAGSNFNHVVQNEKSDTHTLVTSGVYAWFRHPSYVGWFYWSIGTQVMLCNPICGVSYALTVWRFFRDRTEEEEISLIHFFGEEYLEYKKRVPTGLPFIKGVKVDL
row,IC50,SMILES
1,8.8 µM,CC(C)=CCC/C(C)=C/CC/C(C)=C/CSC[C@H](NS(=O)(=O)c1cccs1)C(=O)O
2,13.4 µM,CC(C)=CCC/C(C)=C/CC/C(C)=C/CSC[C@H](NS(=O)(=O)c1cccc([N+](=O)[O-])c1)C(=O)O
3,18.4 µM,CC(C)=CCC/C(C)=C/CC/C(C)=C/CSC[C@H](NS(=O)(=O)c1ccccc1Oc1ccccc1)C(=O)O
4,11.6 µM,CC(C)=CCC/C(C)=C/CC/C(C)=C/CSC[C@H](NS(=O)(=O)c1cccc2c(N(C)C)cccc12)C(=O)O
5,15.5 µM,CC(C)=CCC/C(C)=C/CC/C(C)=C/CSC[C@H](NS(=O)(=O)c1ccc(F)cc1)C(=O)O
6,17 µM,CC(C)=CCC/C(C)=C/CC/C(C)=C/CSC[C@H](NS(=O)(=O)c1ccccc1)C(=O)O

# Biological target: T1, Protein-S-isoprenylcysteine O-methyltransferase
# Assay: Inhibition of human ICMT at 10uM incubated with N-Acetyl-S-farnesyl-L-cysteine substrate for 5 mins followed by addition of [14C]-SAM measured after 30 mins by liquid scintillation counting
# Settings: not given
row,inhibition,SMILES
1,10%,COC(=O)[C@H](CSC/C=C(\C)CC/C=C(\C)CCC=C(C)C)NS(=O)(=O)c1cccs1

# Biological target: T1, Protein-S-isoprenylcysteine O-methyltransferase
# Settings: at 10 µM
# Description: Inhibition of human ICMT at 10 uM incubated with N-Acetyl-S-farnesyl-L-cysteine substrate for 5 mins followed by addition of [14C]-SAM measured after 30 mins by liquid scintillation counting
row,inhibition,SMILES
1,> 55%,COc1ccc(S(=O)(=O)N[C@@H](CSC/C=C(\C)CC/C=C(\C)CCC=C(C)C)C(=O)O)cc1OC
2,17%,CCCCCCSC[C@H](NS(=O)(=O)c1cccc([N+](=O)[O-])c1)C(=O)O
3,> 55%,CC(C)=CCC/C(C)=C/CC/C(C)=C/CSC[C@H](NS(=O)(=O)c1cccs1)C(=O)O
4,22%,CC(C)=CCC/C(C)=C/CSC[C@H](NS(=O)(=O)c1ccccc1)C(=O)O
5,32%,CCCCCCCCCCCSC[C@H](NS(=O)(=O)c1cccc([N+](=O)[O-])c1)C(=O)O
6,45%,CC(C)=CCC/C(C)=C/CC/C(C)=C/CSC[C@H](NS(=O)(=O)c1ccc2ccccc2c1)C(=O)O
7,< 45%,CC(C)=CCC/C(C)=C/CC/C(C)=C/CSC[C@H](NS(=O)(=O)c1ccc(Br)s1)C(=O)O
8,< 45%,CC(C)=CCC/C(C)=C/CC/C(C)=C/CSC[C@H](NS(=O)(=O)c1ccc(Cl)cc1F)C(=O)O
9,< 45%,CC(C)=CCC/C(C)=C/CC/C(C)=C/CSC[C@H](NS(=O)(=O)c1ccccc1Br)C(=O)O
10,> 55%,CC(C)=CCC/C(C)=C/CC/C(C)=C/CSC[C@H](NS(=O)(=O)c1cccc([N+](=O)[O-])c1)C(=O)O
11,55%,CC(C)=CCC/C(C)=C/CC/C(C)=C/CSC[C@H](NS(=O)(=O)c1ccccc1Oc1ccccc1)C(=O)O
12,45%,CC(C)=CCC/C(C)=C/CC/C(C)=C/CSC[C@H](NS(=O)(=O)c1cccc2c(N(C)C)cccc12)C(=O)O
13,< 45%,COc1ccc(S(=O)(=O)N[C@@H](CSC/C=C(\C)CC/C=C(\C)CCC=C(C)C)C(=O)O)cc1
14,< 45%,CC(C)=CCC/C(C)=C/CC/C(C)=C/CSC[C@H](NS(=O)(=O)c1ccc(C)cc1)C(=O)O
15,23%,CC(C)=CCC/C(C)=C/CSC[C@H](NS(=O)(=O)c1ccc(F)cc1)C(=O)O
16,18%,CC(C)=CCC/C(C)=C/CSC[C@H](NS(=O)(=O)c1cccc([N+](=O)[O-])c1)C(=O)O
17,45%,CC(C)=CCC/C(C)=C/CC/C(C)=C/CSC[C@H](NS(=O)(=O)c1ccc(Cl)cc1)C(=O)O
18,45%,CC(C)=CCC/C(C)=C/CC/C(C)=C/CSC[C@H](NS(=O)(=O)c1ccc(F)cc1F)C(=O)O
19,> 55%,CC(C)=CCC/C(C)=C/CC/C(C)=C/CSC[C@H](NS(=O)(=O)c1ccc(F)cc1)C(=O)O
20,< 45%,CC(C)=CCC/C(C)=C/CC/C(C)=C/CSC[C@H](NS(=O)(=O)c1c(C)c(C)c(C)c(C)c1C)C(=O)O

row,inhibition,SMILES
1,45%,CC(C)=CCC/C(C)=C/CC/C(C)=C/CSC[C@H](NS(=O)(=O)c1ccc(C(C)(C)C)cc1)C(=O)O
2,45%,COc1ccc(S(=O)(=O)N[C@@H](CSC/C=C(\C)CC/C=C(\C)CCC=C(C)C)C(=O)O)c(OC)c1
3,45%,CC(C)=CCC/C(C)=C/CC/C(C)=C/CSC[C@H](NS(=O)(=O)c1ccccc1)C(=O)O
4,< 45%,CC(=O)Nc1ccc(S(=O)(=O)N[C@@H](CSC/C=C(\C)CC/C=C(\C)CCC=C(C)C)C(=O)O)cc1
5,< 45%,CC(C)=CCC/C(C)=C/CC/C(C)=C/CSC[C@H](NS(=O)(=O)c1ccccc1C(F)(F)F)C(=O)O
6,< 45%,CCCc1ccc(S(=O)(=O)N[C@@H](CSC/C=C(\C)CC/C=C(\C)CCC=C(C)C)C(=O)O)cc1
7,< 45%,CC(C)=CCC/C(C)=C/CC/C(C)=C/CSC[C@H](NS(=O)(=O)c1c(F)c(F)c(F)c(F)c1F)C(=O)O
8,45%,CC(C)=CCC/C(C)=C/CC/C(C)=C/CSC[C@H](NS(=O)(=O)C[C@@]12CC[C@H](CC1=O)C2(C)C)C(=O)O
9,< 45%,CCCCCCCCS(=O)(=O)N[C@@H](CSC/C=C(\C)CC/C=C(\C)CCC=C(C)C)C(=O)O
10,< 45%,CC(C)=CCC/C(C)=C/CC/C(C)=C/CSC[C@H](NS(=O)(=O)c1ccc(C(C)C)cc1)C(=O)O
11,45%,CC(=O)c1ccc(S(=O)(=O)N[C@@H](CSC/C=C(\C)CC/C=C(\C)CCC=C(C)C)C(=O)O)cc1
12,> 55%,CC(C)=CCC/C(C)=C/CC/C(C)=C/CSC[C@H](NS(=O)(=O)c1ccc([N+](=O)[O-])cc1)C(=O)O
13,< 45%,C=Cc1ccc(S(=O)(=O)N[C@@H](CSC/C=C(\C)CC/C=C(\C)CCC=C(C)C)C(=O)O)cc1
14,< 45%,CC(C)=CCC/C(C)=C/CC/C(C)=C/CSC[C@H](NS(=O)(=O)Cc1ccccc1)C(=O)O
15,< 45%,CC(C)=CCC/C(C)=C/CC/C(C)=C/CSC[C@H](NS(=O)(=O)c1c(C(C)C)cc(C(C)C)cc1C(C)C)C(=O)O
16,45%,CC(C)=CCC/C(C)=C/CC/C(C)=C/CSC[C@H](NS(=O)(=O)c1cccc2cccnc12)C(=O)O
17,< 45%,COc1ccc(S(=O)(=O)N[C@@H](CSC/C=C(\C)CC/C=C(\C)CCC=C(C)C)C(=O)O)c([N+](=O)[O-])c1
18,< 45%,CC(C)=CCC/C(C)=C/CC/C(C)=C/CSC[C@H](NS(=O)(=O)c1ccc(-c2ccccc2)cc1)C(=O)O
19,45%,CC(C)=CCC/C(C)=C/CC/C(C)=C/CSC[C@H](NS(=O)(=O)c1ccccc1[N+](=O)[O-])C(=O)O
